In EP2322149A1, “Methods and compositions for the treatment of ischemia” (Universidad del Pais Vasco, priority 2009, dated 2011):
“Also recorded” adds a separate entry of the source. Counter-ions that a name gives are not always drawn.

Key:
[1] = molecular target: T1, P2X2 (Homo sapiens, UniProt Q9UBL9); details: read-out: IC50 P2X2; cited from earlier work
T1 sequence (Q9UBL9 1-471): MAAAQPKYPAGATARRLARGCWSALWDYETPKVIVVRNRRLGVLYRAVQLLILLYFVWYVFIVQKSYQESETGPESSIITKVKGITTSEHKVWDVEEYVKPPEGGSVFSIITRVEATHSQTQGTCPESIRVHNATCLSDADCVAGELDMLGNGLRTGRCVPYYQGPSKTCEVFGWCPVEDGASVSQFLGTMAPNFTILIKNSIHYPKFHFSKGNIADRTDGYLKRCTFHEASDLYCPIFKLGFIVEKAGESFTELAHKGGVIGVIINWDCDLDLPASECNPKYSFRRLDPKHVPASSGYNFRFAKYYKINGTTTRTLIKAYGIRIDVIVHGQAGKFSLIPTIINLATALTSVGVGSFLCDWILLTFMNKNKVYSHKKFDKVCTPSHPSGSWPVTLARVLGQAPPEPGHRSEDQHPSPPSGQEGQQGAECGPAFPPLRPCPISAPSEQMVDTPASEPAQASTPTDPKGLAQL

[2] = tested on: optic nerve oligodendrocytes; experiment: Oxygen and glucose deprivation (OGD) cell death in oligodendrocyte cultures (calcein-AM); type: cell-based, Sprague-Dawley rats; details: 1h OGD, calcein 24h later; PPADS 100 µM, BBG 50 nM, CNQX 30 µM, APV 100 µM, apyrase 20 U/ml, ARL67156 100 µM, CBX 20 µM, FFA 100 µM, MFQ 1 nM
Experimental: (§1) Primary cultures of oligodendrocytes derived from optic nerves of 12 day-old Sprague-Dawley rats were obtained as previously described (Matute et al., 1997 Proc Natl Acad Sci U S A 94:8830-8835.).Cells were maintained at 37°C and 5% CO2 in a chemically defined medium (Matute et al., 1997 Proc Natl Acad Sci U S A 94:8830-8835.). After 2-4 days in vitro, cultures were composed of at least 98% 04/Ga1C^+ cells. No microglial cells were detected in these cultures. […] Cell death was determined 24h later using calcein-AM (Invitrogen) as previously described (Matute et al., 1997 Proc Natl Acad Sci U S A 94:8830-8835.). Antagonists were present during in vitro ischaemia and during the next 24h incubation period. […] To assay the levels of reactive oxygen species (ROS), cells were loaded with 40 µM 2',7'- dichlorodihyfluoresceindiacetate (DCFDA; Invitrogen) and 1 µM calcein red-orange (Molecular Probes) immediately after OGD. Calcein was used to quantify the number of cells within the reading field. Fluorescence was measured as above and values were plotted as the percentage of DCFDA/calcein red-orange fluorescence versus control. The changes in mitochondrial membrane potential were monitored with 5,5',6,6'-tetrachloro-1,1',3,3'-tetraethylbenzimidazolcarbocyanine iodide (JC-1; Molecular Probes). Immediately after OGD, cells were loaded with JC-1 (3 µM) at 37°C for 30 min. The changes in the membrane potential were calculated as the red (emission at 590)/green (emission at 520) ratio in each condition and results were normalized to control.

[3] = tested on: cultured optic nerve oligodendrocytes; experiment: ATP release measurement (luciferin/luciferase) in oligodendrocyte cultures after OGD; type: cell-based, Sprague-Dawley rats
Experimental: as §1
ATP levels were measured using a Luciferin/Luciferase assay kit (Invitrogen) after 1h normoxia or OGD in oligodendrocyte cultures and in isolated optic nerves according to the manufacturer's instructions. The luminescence was measured with a luminometer Synergy-HT (BioTek) with an integration time of 3 sec. Because ATP was measured in the culture medium and in the solution bathing optic nerves, the concentration of ATP at the extracellular surface, near the vicinity of the receptor was underestimated (Joseph et al., 2003. J Biol Chem 278:23331-23342). The limit of ATP detection was 1 nM and luminescence was linear with increasing ATP concentrations to 1000 nM. The total amount of ATP was calculated according to standard curves and ATP release was expressed in percentage vs control.

[4] = tested on: optic nerves; experiment: Optic nerve ischaemia (OGD), tissue damage by LDH release; design: species or system rats; details: P28 rat optic nerves, 1h OGD + 2h reperfusion; PPADS 1 mM, BBG 50 nM, oATP 1 mM, apyrase 20 U/ml, MFQ 1 µM, CBX 100 µM, FFA 1 mM
Experimental: After 1h OGD at 37°C, the medium was replaced with fresh solution containing glucose and equilibrated with 95% O2, 5% CO2 and the nerves were incubated for another 2h at 37°C to simulate reperfusion.

[5] = molecular target: T2, P2X7 (Homo sapiens, UniProt Q99572); details: cited from earlier work
T2 sequence (Q99572 1-595): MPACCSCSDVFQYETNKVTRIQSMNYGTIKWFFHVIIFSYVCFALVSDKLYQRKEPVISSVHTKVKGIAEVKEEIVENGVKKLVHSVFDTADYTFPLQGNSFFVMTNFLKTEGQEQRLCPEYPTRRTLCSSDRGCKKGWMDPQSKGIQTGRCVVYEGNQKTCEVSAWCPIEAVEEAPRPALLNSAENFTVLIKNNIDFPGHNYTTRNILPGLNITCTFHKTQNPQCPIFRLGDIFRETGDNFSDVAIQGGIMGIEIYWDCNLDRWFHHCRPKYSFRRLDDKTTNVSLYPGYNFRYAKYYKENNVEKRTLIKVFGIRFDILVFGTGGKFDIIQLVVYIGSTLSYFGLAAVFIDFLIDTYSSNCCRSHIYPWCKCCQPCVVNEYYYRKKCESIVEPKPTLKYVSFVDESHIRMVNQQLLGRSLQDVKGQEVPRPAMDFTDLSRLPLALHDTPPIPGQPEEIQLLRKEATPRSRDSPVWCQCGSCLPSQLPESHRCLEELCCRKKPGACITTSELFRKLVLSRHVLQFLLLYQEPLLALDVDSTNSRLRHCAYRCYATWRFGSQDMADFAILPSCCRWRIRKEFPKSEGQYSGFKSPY

[6] = molecular target: P2X6 (Homo sapiens, UniProt O15547); details: read-out: IC50 P2X6; cited from earlier work
Sequence of P2X6 (O15547 whole entry, species assumed): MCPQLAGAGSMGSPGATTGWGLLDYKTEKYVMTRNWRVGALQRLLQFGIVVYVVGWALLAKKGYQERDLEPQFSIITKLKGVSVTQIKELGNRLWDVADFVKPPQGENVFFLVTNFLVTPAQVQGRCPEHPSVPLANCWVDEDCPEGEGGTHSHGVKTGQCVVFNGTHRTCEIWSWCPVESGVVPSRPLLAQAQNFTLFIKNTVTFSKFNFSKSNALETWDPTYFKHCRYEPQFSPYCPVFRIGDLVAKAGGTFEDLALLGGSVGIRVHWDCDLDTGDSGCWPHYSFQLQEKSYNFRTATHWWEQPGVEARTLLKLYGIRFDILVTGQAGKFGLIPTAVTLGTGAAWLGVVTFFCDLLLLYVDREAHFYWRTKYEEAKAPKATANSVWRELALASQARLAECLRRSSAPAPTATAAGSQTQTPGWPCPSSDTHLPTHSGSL

[7] = molecular target: T3, P2X3 (Homo sapiens, UniProt P56373); details: read-out: IC50 P2X3; cited from earlier work
T3 sequence (P56373 1-397): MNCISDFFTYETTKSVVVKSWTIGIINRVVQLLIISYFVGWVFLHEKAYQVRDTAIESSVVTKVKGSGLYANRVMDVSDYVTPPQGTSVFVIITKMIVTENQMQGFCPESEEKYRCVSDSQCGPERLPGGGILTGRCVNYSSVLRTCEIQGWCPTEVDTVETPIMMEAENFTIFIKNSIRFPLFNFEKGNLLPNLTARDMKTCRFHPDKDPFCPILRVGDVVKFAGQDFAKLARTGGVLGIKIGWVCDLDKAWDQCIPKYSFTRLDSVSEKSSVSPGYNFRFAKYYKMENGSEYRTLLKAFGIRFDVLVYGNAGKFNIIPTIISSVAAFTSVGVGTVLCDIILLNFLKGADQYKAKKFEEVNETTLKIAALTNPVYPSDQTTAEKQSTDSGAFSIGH

[8] = molecular target: T4, P2X1 (Homo sapiens, UniProt P51575); details: read-out: IC50 P2X1; cited from earlier work
T4 sequence (P51575 1-399): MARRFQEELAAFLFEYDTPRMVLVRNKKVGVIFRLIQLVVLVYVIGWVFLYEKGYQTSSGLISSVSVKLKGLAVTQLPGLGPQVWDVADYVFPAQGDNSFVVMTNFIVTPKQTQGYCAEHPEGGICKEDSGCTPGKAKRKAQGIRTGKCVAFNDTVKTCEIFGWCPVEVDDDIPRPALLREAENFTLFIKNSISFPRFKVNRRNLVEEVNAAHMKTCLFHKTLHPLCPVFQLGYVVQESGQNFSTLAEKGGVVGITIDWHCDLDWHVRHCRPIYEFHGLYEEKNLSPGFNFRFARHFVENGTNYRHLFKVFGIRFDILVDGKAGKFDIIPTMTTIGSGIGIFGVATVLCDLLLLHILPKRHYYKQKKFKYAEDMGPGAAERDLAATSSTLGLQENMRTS

Compound | IC50 [1] | IC50 [5] | IC50 [7] | also measured
1-amino-4-[[4-[[4-chloro-6-[[3 (or 4)-sulfophenyl]amino]-1,3,5-triazin-2-yl]amino]-3-sulfophenyl]amino]-9,10-dihydro-9,10-dioxo-2-anthracenesulfonic acid [RB-2] | 1000 nM |  |  | 
CCN(CC)c1ncnc2c1ncn2[C@@H]1O[C@H](COP(=O)(O)OP(=O)(O)C(Br)(Br)P(=O)(O)O)[C@@H](O)[C@H]1O [ARL67156] |  |  |  | OGD-induced oligodendrocyte cell death [2]: increased; also recorded: potentiated; ATP concentration after OGD ([3]; 1h OGD, ARL67156 100 µM, percentage vs control, OGD alone 181.2 ± 25.3 %): 439.6 ± 71.0%; ATP release after 1h OGD ([3]; ARL67156 100 µM): potentiated
O=C(O)c1ccccc1Nc1cccc(C(F)(F)F)c1 [FFA, 2-[3-(trifluoromethyl)anilino]benzoic acid] |  |  |  | OGD-induced oligodendrocyte cell death [2]: inhibited; ATP levels after OGD ([3]; 1h OGD in the presence of ARL67156, CBX 20 µM, FFA 100 µM, MFQ 1 nM (figure legend)): significantly reduced; ischaemia-induced damage to optic nerves (LDH release) [4]: reduced; also recorded: attenuated
CN([C@@H](Cc1ccc(OS(=O)(=O)c2cccc3cnccc23)cc1)C(=O)N1CCN(c2ccccc2)CC1)S(=O)(=O)c1cccc2cnccc12 [KN-62, ester of 4-[(2S)-2-[(5-isoquinolinylsulfonyl)methylamino]-3-oxo-3-(4-phenyl-1-piperazinyl)propyl] phenyl isoquinolinesulfonic acid] |  | 15 nM |  | 
NC(N)=NC(=O)c1nc(Cl)c(N2CCCCCC2)nc1N [HMA] |  | 4500 nM |  | 
Cc1ccc(C(=O)Nc2ccc(S(=O)(=O)O)c3cc(S(=O)(=O)O)cc(S(=O)(=O)O)c23)cc1NC(=O)c1cccc(NC(=O)Nc2cccc(C(=O)Nc3cc(C(=O)Nc4ccc(S(=O)(=O)O)c5cc(S(=O)(=O)O)cc(S(=O)(=O)O)c45)ccc3C)c2)c1 [Suramin, hexasodium salt of 8,8'-[carbonylbis[imino-3,1-phenylenecarbonylimino(4-methyl-3,1-phenylene)carbonylimino]] bisnaphthalene-1,3,5-trisulphonic acid] | 1000 to 5000 nM |  |  | IC50 [6]: > 100000 nM
Nc1ncnc2c1ncn2[C@@H]1O[C@H](COP(=O)(O)OP(=O)(O)OP(=O)(O)O)[C@H]2OC3(O[C@H]21)C([N+](=O)[O-])=CC(=[N+]([O-])[O-])C=C3[N+](=O)[O-] (stereo partly shown) [TNP-ATP, monolithium salt of 2',3'-O-2,4,6-trinitrophenyl-adenosine 5'-triphosphate] |  | > 30000 nM |  | 
O=C(Nc1cc(C(=O)Nc2ccc(S(=O)(=O)O)cc2S(=O)(=O)O)cc(C(=O)Nc2ccc(S(=O)(=O)O)cc2S(=O)(=O)O)c1)Nc1cc(C(=O)Nc2ccc(S(=O)(=O)O)cc2S(=O)(=O)O)cc(C(=O)Nc2ccc(S(=O)(=O)O)cc2S(=O)(=O)O)c1 [NF449, octasodium salt of 4,4',4",4"'-(carbonylbis(imino-5,1,3-benzenetriylbis(carbonylimino)))tetrakis-benzene-1,3-disulfonic acid] |  |  | < 6 nM | 
Cc1nc(N=Nc2cc(S(=O)(=O)O)c3cc([N+](=O)[O-])cc(S(=O)(=O)O)c3c2)c(CO[P+]([O-])(O)O)c(C=O)c1O [PPNDS] | 15 nM |  |  | 
Cc1nc(N=Nc2cc(S(=O)(=O)O)ccc2S(=O)(=O)O)c2c(c1O)COP(=O)(O)OC2 [MRS2220, cyclic pyridoxine-alpha.4,5-monophosphate-6-azo-phenyl-2',5'disulfonate] |  |  | 58000 nM | IC50 [8]: 10000 nM
Cc1nc(/N=N/c2cc(S(=O)(=O)O)ccc2S(=O)(=O)O)c(COP(=O)(O)O)c(C=O)c1O [isoPPADS, tetrasodium salt of pyridoxalphosphate-6-azophenyl-1',4'-disulfonic acid] |  |  | 1000 nM | IC50 [8]: 1000 to 5000 nM
O=C(Nc1ccc(C(=O)Nc2ccc(C(=O)Nc3ccc(S(=O)(=O)O)c4cc(S(=O)(=O)O)cc(S(=O)(=O)O)c34)cc2)cc1)Nc1ccc(C(=O)Nc2ccc(C(=O)Nc3ccc(S(=O)(=O)O)c4cc(S(=O)(=O)O)cc(S(=O)(=O)O)c34)cc2)cc1 [NF279] | 770 nM | 2800 nM | 1600 nM | IC50 [8]: 2000 nM
